Test results reported in article PMC6272448, “Synthesis, ^18F-Radiolabelling and Biological Characterization of Novel Fluoroalkylated Triazine Derivatives for in Vivo Imaging of Phosphodiesterase 2A in Brain via Positron Emission Tomography” (Molecules, 2015).

Target: T1, PDE2A (Rattus norvegicus, UniProt Q01062)
T1 construct: from tissue; host or cells: sagittal brain sections of female SPRD rats
T1 sequence (Q01062 1-928): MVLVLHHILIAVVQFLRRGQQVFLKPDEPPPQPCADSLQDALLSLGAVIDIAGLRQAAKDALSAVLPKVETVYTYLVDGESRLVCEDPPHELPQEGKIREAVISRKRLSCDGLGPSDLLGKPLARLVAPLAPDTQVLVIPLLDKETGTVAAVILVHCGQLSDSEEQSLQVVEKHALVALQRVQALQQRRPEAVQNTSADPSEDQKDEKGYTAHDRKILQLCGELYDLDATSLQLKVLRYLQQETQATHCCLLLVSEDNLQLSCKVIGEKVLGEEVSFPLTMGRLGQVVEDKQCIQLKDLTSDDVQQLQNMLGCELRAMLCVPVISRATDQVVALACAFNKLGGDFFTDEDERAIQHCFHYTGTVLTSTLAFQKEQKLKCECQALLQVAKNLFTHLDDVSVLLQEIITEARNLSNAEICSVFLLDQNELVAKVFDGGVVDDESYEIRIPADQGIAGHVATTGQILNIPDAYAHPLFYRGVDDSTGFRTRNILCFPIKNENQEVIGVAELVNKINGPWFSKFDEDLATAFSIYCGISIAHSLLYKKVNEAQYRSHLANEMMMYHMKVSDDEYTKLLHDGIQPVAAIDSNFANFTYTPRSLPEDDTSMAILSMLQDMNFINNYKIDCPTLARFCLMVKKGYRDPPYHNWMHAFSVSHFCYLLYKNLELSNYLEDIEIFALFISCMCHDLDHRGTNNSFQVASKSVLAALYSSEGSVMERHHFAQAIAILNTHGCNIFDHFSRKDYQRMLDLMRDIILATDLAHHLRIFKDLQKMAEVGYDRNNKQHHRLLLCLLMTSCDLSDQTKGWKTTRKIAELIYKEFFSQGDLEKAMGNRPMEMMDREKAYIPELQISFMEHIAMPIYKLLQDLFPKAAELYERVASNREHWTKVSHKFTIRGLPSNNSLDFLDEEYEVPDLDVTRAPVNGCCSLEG
Assay: in vitro autoradiography on sagittal rat brain sections
Format: binding
Conditions: sagittal rat brain slices, ~1 MBq/mL, 60 min incubation
Protocol: In vitro autoradiographic studies were accomplished by incubating sagittal sections of rat brain with [^18F]TA3 or [^18F]TA4. […] The images shown in Figure 6 indicate region-specific accumulation of both radioligands [^18F]TA3 and [^18F]TA4, which is consistent with the distribution pattern of PDE2A protein in rat brain [9, 11]. Therefore, we assume that the novel radioligands might be appropriate for in vitro imaging of PDE2A.
Frozen sagittal brain sections obtained from female SPRD rats (10–12 weeks old) were thawed, dried in a stream of cold air, and preincubated for 20 min with incubation buffer (50 mM TRIS-HCl, pH 7.4, 120 mM NaCl, 5 mM KCl, 2 mM CaCl2, 5 mM MgCl2) at ambient temperature. Brain sections were incubated with ~1 MBq/mL of [^18F]TA3 or [^18F]TA4 in incubation buffer for 60 min at ambient temperature. Afterwards sections were washed twice with 50 mM TRIS-HCl (pH 7.4) for 2 min at 4 °C, dipped briefly in ice-cold deionized water, dried in a stream of cold air and exposed for 60 min to an ^18F-sensitive image plate that was analyzed afterwards using an image plate scanner (HD-CR 35; Duerr NDT GmbH, Bietigheim Bissingen, Germany).

SMILES	regional binding in autoradiography
COc1ccc2nnc3c(C)nc(-c4cc(OCCCC[18F])ccc4F)n3c2n1 [[^18F]TA4]	also binds to the olfactory tubercle, colliculi and partly to cerebellum
COc1ccc2nnc3c(C)nc(-c4cc(OCCC[18F])ccc4F)n3c2n1 [[^18F]TA3]	higher binding densities in cortex and striatum than in cerebellum
